Assay results taken from patent publication US20160039904A1, “STABILIZED SINGLE HUMAN CD4 DOMAINS AND FUSION PROTEINS” (priority 2013, published 2016).

Columns and labels:
[1] = test system: HIV-1 CNE49; format: cell-based; conditions: Table 7; CNE49, clade BC, R5
[2] = test system: HIV-1 CNE58; format: cell-based; conditions: Table 7; CNE58, clade C, R5
[3] = test system: HIV-1 primary isolates Bal and JRFL; format: cell-based; conditions: in contrast to D1D2
[4] = test system: HIV-1 55815.EC3; assay: TZM-bl cell-based neutralization assay; conditions: Table 6; 55815.EC3, clade AG, R5
[5] = test system: HIV-1 BZ167.ec9; assay: TZM-bl cell-based neutralization assay; conditions: Table 6; BZ167.ec9, clade B, X4
[6] = test system: HIV-1 pseudotyped with Envs from different clades; assay: Pseudotyped HIV-1 neutralization, means over the panel of Table 3; format: cell-based; conditions: all viruses, <[…] assigned 0.01, 2G12: 10 isolates significantly neutralized
Protocol: (§1) To determine the potency and breadth of HIV-1 neutralization by the D1 mutants, viruses pseudotyped with Envs from HIV-1 isolates representing clades A-E and using either CCR5 (R5) or CXCR4 (X4) or both (R5X4) as a coreceptor were included. Pseudoviruses were derived from 293T cells and a neutralization assay was performed in duplicate using HOS-CD4-CCR5 (for all R5 and dual tropic viruses) or HOS-CD4-CXCR4 cell lines as described in Chen et al., Proc. Natl. Acad. Sci. USA, 105: 17121-17126 (2008)). Luminescence was measured 48 hours post-infection and the percentage neutralization was calculated by the following formula: (1—average RLU of inhibitor-containing wells/average RLU or virus-only wells)×100.

[7] = test system: HIV-1 CNE11; format: cell-based; conditions: Table 7; CNE11, clade B′, R5
[8] = test system: HIV-1 CNE3; format: cell-based; conditions: Table 7; CNE3, clade AE, R5
[9] = test system: HIV-1 PBL286.VRC36aPV; assay: TZM-bl cell-based neutralization assay; conditions: Table 6, clade C, R5
[10] = test system: HIV-1 CNE59; format: cell-based; conditions: Table 7; CNE59, clade AE, R5
[11] = Stability against degradation in PBS at 37° C. (binding activity to gp140Con-s); format: physicochemical
[12] = test system: HIV-1 CM240.EC1; assay: TZM-bl cell-based neutralization assay; conditions: Table 6; CM240.EC1, clade AE, R5
[13] = next 5 days of incubation (days 5-10), 37° C.
Protocol: The proteins were then assessed for their stability against degradation during 15 days of incubation with PBS (see FIG. 12A) or human serum (see FIG. 12B) at 37° C.

[14] = test system: HIV-1 KNH1144.EC1; assay: TZM-bl cell-based neutralization assay; conditions: Table 6; KNH1144.EC1, clade A, R5
[15] = test system: HIV-1 GX2010.36; format: cell-based; conditions: Table 7; GX2010.36, clade AE, R5
[16] = test system: HIV-1 CNE64; format: cell-based; conditions: Table 7; CNE64, clade B′, R5
[17] = test system: HIV-1 Bal.EC1 TC; assay: TZM-bl cell-based neutralization assay; conditions: Table 6, clade B, R5
[18] = test system: HIV-1 CH64; format: cell-based; conditions: Table 7; CH64, clade BC, R5
[19] = test system: HIV-1 CNE68; format: cell-based; conditions: Table 7; CNE68, clade BC, R5
[20] = test system: HIV-1 CAM0015BBY.EC3; assay: TZM-bl cell-based neutralization assay; conditions: Table 6; CAM0015BBY.EC3, clade AG, R5
[21] = test system: HIV-1 57128.VRC18; assay: TZM-bl cell-based neutralization assay; conditions: Table 6; 57128.VRC18, clade D, R5
[22] = test system: HIV-1 CNE17; format: cell-based; conditions: Table 7; CNE17, clade C, R5
[23] = test system: HIV-1 A07412VRC12A; assay: TZM-bl cell-based neutralization assay; conditions: Table 6, clade D, R5
[24] = test system: HIV-1 JRCSF; assay: Pseudotyped HIV-1 neutralization (HOS-CD4-CCR5 cells); format: cell-based; conditions: Table 3, clade B, R5
Protocol: as §1

[25] = test system: HIV-1 Z2Z6; assay: as above; format: cell-based; conditions: Table 3; Z2Z6, clade D, R5
Protocol: as §1

[26] = test system: HIV-1 GXE; assay: as above; format: cell-based; conditions: Table 3, clade E, R5
Protocol: as §1

[27] = test system: HIV-1 92UG037.8; assay: as above; format: cell-based; conditions: Table 3; 92UG037.8, clade A, R5
Protocol: as §1

[28] = Solubility of fusion proteins in PBS (concentration, centrifugation); format: physicochemical
Protocol: To evaluate the potential for further development as drugs, several drug-related properties, including solubility, stability, and aggregation propensity were tested.

Work on “4Dm2m: bispecific multivalent fusion protein of mD1.22 and m36.4; two SEQ ID NO: 20 and two SEQ ID NO: 21 chains” yielded an IC50 [1] of 0.05 nM, an IC90 [1] of 0.56 nM and an IC90 [2] of over 28 nM. For the same substance, the “enhancement of HIV-1 infectivity at low concentrations” value [3] was “not enhance HIV-1 infectivity”, the IC50 [4] was 0.084 nM and the IC90 [4] was 0.61 nM. The IC50 [5] was 0.077 nM, the IC90 [5] was 0.5 nM and the “IC50, arithmetic mean” value [6] was 0.22 nM. The “IC50, geometric mean” value [6] was 0.12 nM, the “IC90, arithmetic mean” value [6] was 1.6 nM and the “IC90, geometric mean” value [6] was 0.56 nM. The IC50 [7] was 0.33 nM, the IC90 [7] was 2.6 nM and the IC50 [8] was 0.39 nM. For the same substance, the IC90 [8] was 2.8 nM, the IC50 [9] was 2 nM and the IC90 [10] was 2.7 nM. The remained functional ([11]; end of 15 days of incubation with PBS) was “about 90%”, the “amount of functional protein” value ([11]; incubation in PBS for 10 days) was “no significant decrease” and the IC50 [12] was 0.45 nM. For the same substance, the IC90 [12] was 3.7 nM, the “degradation in human serum” value [13] was “slower than that of CD4-Ig” and the IC50 [14] was 0.081 nM. For the same substance, the IC90 [14] was 1 nM, the IC50 [15] was 0.11 nM and the IC50 [16] was 0.56 nM. For the same substance, the IC50 [17] was 0.057 nM, the IC90 [17] was 0.22 nM and the IC90 [18] was 1.6 nM. It also gave an IC50 [19] of 0.11 nM, an IC90 [19] of 0.78 nM and an IC50 [20] of 0.72 nM. The IC90 [20] was 7.4 nM, the IC50 [21] was 0.4 nM and the IC90 [21] was 2.8 nM. It also gave an IC50 [22] of 0.11 nM, an IC90 [22] of 2.4 nM and an IC50 [23] of 0.75 nM. It also gave an IC90 [23] of 5.7 nM, an IC50 [24] of 0.29 ± 0.18 nM and an IC90 [24] of 3 ± 2.9 nM. For the same substance, the IC50 [25] was 0.14 ± 0.04 nM, the IC90 [25] was 1.1 ± 0.1 nM and the IC50 [26] was 0.83 ± 0.11 nM. It also gave an IC90 [26] of 8.2 ± 1.3 nM, an IC50 [27] of 0.051 ± 0.001 nM and an IC90 [27] of 0.45 ± 0.01 nM. For the same substance, the precipitation on storage ([28]; 4° C. for 2 weeks) was “no additional precipitation was observed” and the “concentration reached in PBS without visible precipitation after high-speed centrifugation” value ([28]; PBS) was 25.0 mg/mL.

For enfuvirtide, the IC50 [1] was 9.1 nM, the IC90 [1] was 236 nM and the IC50 [2] was 54 nM. The IC90 [2] was 745 nM, the IC50 [7] was 3.5 nM and the IC90 [7] was 36 nM. It also gave an IC50 [8] of 5.6 nM, an IC90 [8] of 38 nM and an IC50 [10] of 1.4 nM. It also gave an IC90 [10] of 17 nM, an IC50 [15] of 255 nM and an IC90 [15] of over 750 nM. For the same substance, the IC50 [16] was 1.9 nM, the IC90 [16] was 16 nM and the IC50 [18] was 3.1 nM. For the same substance, the IC90 [18] was 25 nM, the IC50 [19] was 32 nM and the IC90 [19] was 321 nM. It also gave an IC50 [22] of 42 nM and an IC90 [22] of 676 nM.
